Results as given in ChEMBL document CHEMBL4190214, “Identification of BMI1 Promoter Inhibitors from Beaumontia murtonii and Eugenia operculata” (J Nat Prod, 2017).

Key:
[1] = Inhibition of BMI1 promoter (unknown origin) expressed in HEK293T cells after 24 hrs by luciferase reporter gene assay; type: cell-based; conditions: HEK-293T
Huh-7 [2] = experiment: Inhibition of self-renewal of human HuH7 cells assessed as reduction in EpCAM positive fraction at 50 uM after 20 mins by propidium iodide staining-based flow cytometric analysis; type: functional; conditions: Huh-7, 20 min
Homo sapiens = organism: Homo sapiens; experiment: Inhibition of BMI1 promoter in human HCT116 cells assessed as decrease in BMI1 protein expression levels after 24 hrs by Western blot analysis; type: cell-based
DU-145 = experiment: Cytotoxicity against human DU145 cells after 24 hrs by fluorescein diacetate staining-based fluorescence assay; type: functional, cell-based; conditions: DU-145, 24 h
HCT-116 = experiment: Cytotoxicity against human HCT116 cells after 24 hrs by fluorescein diacetate staining-based fluorescence assay; type: functional, cell-based; conditions: HCT-116, 24 h
HEK293 = experiment: Cytotoxicity against HEK293 cells after 24 hrs by fluorescein diacetate staining-based fluorescence assay; type: cell-based; conditions: Homo sapiens, HEK293, 24 h
Huh-7 [3] = experiment: Inhibition of self-renewal capacity of human EpCAM-positive HuH7 cells assessed as reduction in sphere formation after 6 days; type: functional, cell-based
Huh-7 [4] = experiment: Inhibition of self-renewal of human HuH7 cells assessed as EpCAM positive fraction at 0.5 uM after 20 mins by propidium iodide staining-based flow cytometric analysis (reference value: 91.2 %); type: functional; design: scale not given: the % may be the effect or the level left
Huh-7 [5] = experiment: Inhibition of self-renewal of human HuH7 cells assessed as EpCAM positive fraction at 5 uM after 20 mins by propidium iodide staining-based flow cytometric analysis (reference value: 91.2 %); type: functional; design: scale not given: the % may be the effect or the level left
Huh-7 [6] = experiment: Inhibition of self-renewal of human HuH7 cells assessed as EpCAM negative fraction at 0.5 uM after 20 mins by propidium iodide staining-based flow cytometric analysis (reference value: 8.8 %); type: functional; design: scale not given: the % may be the effect or the level left
Huh-7 [7] = experiment: Inhibition of self-renewal of human HuH7 cells assessed as EpCAM negative fraction at 5 uM after 20 mins by propidium iodide staining-based flow cytometric analysis (reference value: 8.8 %); type: functional; design: scale not given: the % may be the effect or the level left

CO[C@H]1C[C@@H](O[C@H]2CC[C@@]3(C)[C@H](CC[C@@H]4[C@@H]3CC[C@]3(C)[C@@H](C5=CC(=O)OC5)CC[C@]43O)C2)O[C@@H](C)[C@@H]1O showed an IC50 [1] of 450 nM.

C=C(C)[C@@H]1CC[C@]2(C(=O)OC)CC[C@]3(C(=O)O)[C@H](CC[C@@H]4[C@@]5(C)CC[C@H](O)C(C)(C)[C@@H]5CC[C@]43C)[C@@H]12 gave an IC50 [1] of 19500 nM.

For CO[C@H]1C[C@H](O[C@H]2CC[C@@]3(C)[C@H](CC[C@@H]4[C@@H]3CC[C@]3(C)[C@@H](C5=CC(=O)OC5)CC[C@]43O)C2)O[C@H](C)[C@H]1O, the IC50 [1] was 98 nM.

CC1(C)CC[C@]2(C(=O)O)CC[C@]3(C)C(=CC[C@@H]4[C@@]5(C)C[C@@H](O)[C@H](O)C(C)(C)[C@@H]5CC[C@]43C)[C@@H]2C1 [MASLINIC ACID] gave an IC50 [1] of 22700 nM.

Work on C[C@]12CC[C@H](O)C[C@H]1CC[C@@H]1[C@@H]2CC[C@]2(C)[C@@H](C3=CC(=O)OC3)CC[C@]12O [DIGITOXIGENIN] yielded an IC50 [1] of 1700 nM.

Work on O=[N+]([O-])c1ccc(Nc2ccccc2-c2ccccc2)c2nonc12 yielded an inhibition at 50 µM (Huh-7 [2]) of 30 to 40%.

In the case of CO[C@@H]1C[C@H](O[C@H]2CC[C@@]3(C)[C@H](CC[C@@H]4[C@@H]3CC[C@]3(C)[C@@H](C5=CC(=O)OC5)CC[C@]43O)C2)O[C@@H](C)[C@@H]1O, the IC50 [1] is reported as 93 nM, the inhibition (Homo sapiens) is reported as “Dose-dependent effect” and the IC50 (DU-145) is reported as 140 nM. For the same compound, the IC50 (HCT-116) was 58 nM, the IC50 (HEK293) was 5000 nM and the inhibition (Huh-7 [3]) was “Dose-dependent effect”. It also gave an Activity (Huh-7 [4]) of 80.1%, an Activity (Huh-7 [5]) of 72.9% and an Activity (Huh-7 [6]) of 19.9%. It also gave an Activity (Huh-7 [7]) of 27.1%.
